According to patent publication US12534429B2, “Heterodimers of glutamic acid” (Molecular Insight Pharmaceuticals, Inc., priority 2006, dated 2026):
Like-named read-outs stand apart in the source and are kept apart here.

Experiments:
PSMA on LNCaP cells = biological target: T1, PSMA on LNCaP cells (Homo sapiens, UniProt Q04609); test: In vitro cell binding: competition with I-131 DCIT for binding to PSMA on LNCaP cells
T1 construct: LNCaP human prostate cancer cells were obtained from American Type Culture Collection; host or cells: LNCaP human prostate cancer cells
T1 sequence (Q04609 whole entry): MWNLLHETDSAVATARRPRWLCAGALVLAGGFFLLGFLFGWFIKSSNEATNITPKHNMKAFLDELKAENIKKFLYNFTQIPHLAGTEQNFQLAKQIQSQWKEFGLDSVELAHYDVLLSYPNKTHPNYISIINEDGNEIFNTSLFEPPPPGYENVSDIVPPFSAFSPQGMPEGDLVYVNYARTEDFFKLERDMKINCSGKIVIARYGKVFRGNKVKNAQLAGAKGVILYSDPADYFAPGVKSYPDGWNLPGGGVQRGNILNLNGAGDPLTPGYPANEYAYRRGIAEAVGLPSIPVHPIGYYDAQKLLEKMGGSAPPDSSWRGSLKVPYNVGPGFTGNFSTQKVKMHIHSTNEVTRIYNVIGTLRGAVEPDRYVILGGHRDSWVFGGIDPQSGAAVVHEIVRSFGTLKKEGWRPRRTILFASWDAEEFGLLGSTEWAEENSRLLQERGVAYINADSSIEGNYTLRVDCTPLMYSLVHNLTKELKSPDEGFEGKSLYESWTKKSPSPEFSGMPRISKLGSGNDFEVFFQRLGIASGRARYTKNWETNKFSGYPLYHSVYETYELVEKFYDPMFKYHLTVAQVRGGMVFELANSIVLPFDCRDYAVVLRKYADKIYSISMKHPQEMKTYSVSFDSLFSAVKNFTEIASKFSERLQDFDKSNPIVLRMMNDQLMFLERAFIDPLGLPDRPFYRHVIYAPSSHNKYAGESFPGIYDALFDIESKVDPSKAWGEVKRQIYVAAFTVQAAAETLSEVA
Experimental: In vitro cold screening assays verses I-131 DCIT. LNCaP and PC3 human prostate cancer cells were obtained from American Type Culture Collection, Rockville, MD LNCaP cells were maintained in RPMI-1640 medium supplemented with 10% fetal bovine serum (FBS). PC3 cells were grown in F12K medium supplemented with 10% FBS. Binding of the radiolabeled compound and competition with cold derivatives to LNCaP and PC-3 cells was performed according to the methods of Tang et al. (Tang, H.; Brown, M.; Ye, Y.; Huang, G.; Zhang, Y.; Wang, Y.; Zhai, H.; Chen, X.; Shen, T. Y.; Tenniswood, M., Prostate targeting ligands based on N-acetylated alpha-linked acidic dipeptidase, Biochem. Biophys. Res. Commun. 2003, 307, 8-14) with appropriate modifications. Cells were plated in 12-well plates at approximately 4×10^5 cells/well and incubated for 48 hours in a humidified incubator at 37° C./5% carbon dioxide prior to addition of compound. Each unique SAAC-urea-Glu conjugate was prepared and diluted in serum-free cell culture medium containing 0.5% bovine serum albumin (BSA) in combination with 3 nM I-131 DCIT (known inhibitor). Total binding was determined by incubating I-131 DCIT without test compound. Plates were incubated at room temperature for 1 hour. Cells were removed from the plates by gently pipeting and transferred to eppendorff tubes. Samples were microcentrifuged for 15 seconds at 10K×g. The medium was aspirated and the pellet was washed twice by dispersal in fresh assay medium followed by microcentrifugation. Cell binding of I-131 DCIT was determined by counting the cell pellet in an automated gamma counter. […] The control compounds are depicted below.
The ability of non-radioactive analogs to compete with ^131I-DCIT for binding to PSMA was tested in the PSMA positive human prostate cancer cell line, LNCaP cells. LNCaP cells (300,000 cells/well) were incubated for 1 hour with 3 nM [^131I]-DCIT in the presence of 1-10,000 nM MIP-1072 in RPMI-1640 medium supplemented with 0.5% bovine serum albumin, then washed and counted in a gamma counter. All documents cited in this specification including patent applications are incorporated by reference in their entirety.

LnCap cells = test: Direct binding of radiolabeled DCIT to PSMA-positive LnCap cells; design: species or system human; details: counts displaceable by nonradiolabeled compound or PMPA
Experimental: (§1) The histograms show the mean f SEM, each experiment was performed in duplicate.
(§2) In vitro cold screening assays verses I-131 DCIT. LNCaP and PC3 human prostate cancer cells were obtained from American Type Culture Collection, Rockville, MD LNCaP cells were maintained in RPMI-1640 medium supplemented with 10% fetal bovine serum (FBS). PC3 cells were grown in F12K medium supplemented with 10% FBS. Binding of the radiolabeled compound and competition with cold derivatives to LNCaP and PC-3 cells was performed according to the methods of Tang et al. (Tang, H.; Brown, M.; Ye, Y.; Huang, G.; Zhang, Y.; Wang, Y.; Zhai, H.; Chen, X.; Shen, T. Y.; Tenniswood, M., Prostate targeting ligands based on N-acetylated alpha-linked acidic dipeptidase, Biochem. Biophys. Res. Commun. 2003, 307, 8-14) with appropriate modifications. […] Total binding was determined by incubating I-131 DCIT without test compound. […] Cell binding of I-131 DCIT was determined by counting the cell pellet in an automated gamma counter. […]
(§3) (ii) In vitro dose screening. […] Binding constants were determined by incubating LnCap cells with various amounts of nonradiolabeled DCIT in the presence of a constant amount of I-131 DCIT and dividing by the specific activity of each solution to determine the number of fmoles compound bound (FIG. 6).

PC3 cells = test: Direct binding of radiolabeled DCIT to PSMA-negative PC3 cells; design: species or system human
Experimental: as §1, §2, §3

[1] = Stability of iodine-131 labeled compounds in solution (HPLC); assay type: physicochemical
Experimental: FIG. 4A-4D are radio-HPLC chromatograms of I-131 MIP 1072 purified; at 3 days in A) DMSO. B) 3% genstisate-6% Ascorbate/Ascorbic acid, C) PBS, pH=7.2, D) 10% Ethanol in Saline at 37° C.
(§4) The stability of the radiolabeled compound in solution was determined as a function of time. Specifically, after radiolabeling and isolation, the product was stored at room temperature for 48 h after which HPLC analysis was performed to check for degree of label retention, as well as potential product degradation. The reformation of NaI and the presence of the reduced iodates was analyzed.
as §4, with “37° C.” for “room temperature”, “3 days” for “48 h”

PSMA (LnCap cells) = PSMA (LnCap cells) (Homo sapiens, UniProt Q04609); test: Scatchard analysis in PSMA cellular binding assay (nonradiolabeled DCIT with I-131 DCIT)
Sequence of PSMA (LnCap cells) (Q04609 whole entry): as above
Experimental: FIG. 6 is Scatchard Analysis in PSMA Cellular Binding Assay with cold 2-{3-[1-Carboxy-2-(4-hydroxy-phenyl)-ethyl]-ureido}-pentanedioic acid (DCT).
as §3

[2] = LNCaP cells, 3 nM I-131 DCIT, 1 hour, read-out: IC50 (nM), in vitro cell binding data
[3] = LnCap cells, dose curves, read-out: IC50 values versus I-131 DCIT
[4] = LnCap cells, dose curves, read-out: IC-50 versus I-131 DCIT

Compound: O=C(O)CC[C@H](NC(=O)N[C@@H](CCCCNC(=O)Nc1ccc(Cl)cc1)C(=O)O)C(=O)O [MIP 1110, 2-(3-{1-Carboxy-5-[3-(4-chloro-phenyl)-ureido]-pentyl}-ureido)-pentanedioic acid]
- IC50 (PSMA on LNCaP cells; [2]): 4 nM

Compound: O=C(O)CC[C@H](NC(=O)N[C@@H](CCCCNCc1cccc2ccccc12)C(=O)O)C(=O)O [MIP-1108, (S)-2-(3-((R)-1-carboxy-5-([…]yridine[…]ne-1-ylmethylamino)pentyl)ureido)pentanedioic acid]
- IC50 (PSMA on LNCaP cells; [2]): 154 nM

Compound: O=C(O)CC[C@H](NC(=O)N[C@@H](CCCCNCc1ccccc1Cl)C(=O)O)C(=O)O [MIP-1137, (S, S)-2-{3-[1-Carboxy-5-(2-chloro-benzylamino)-pentyl]-ureido}-pentanedioic]
- IC50 (PSMA on LNCaP cells; [2]): 245 nM

Compound: O=C(O)CC[C@H](NC(=O)N[C@@H](CCCCNC(=O)Nc1ccc(I)cc1)C(=O)O)C(=O)O [MIP 1095, 2-(3-{1-Carboxy-5-[3-(4-iodo-phenyl)-ureido]-pentyl}-ureido)-pentanedioic acid]
- IC50 (PSMA on LNCaP cells; [2]): 10 nM
- IC50 (PSMA on LNCaP cells; [3]): < 50 nM

Compound: O=C(O)CC[C@H](NC(=O)N[C@@H](Cc1ccc(O)c([123I])c1)C(=O)O)C(=O)O [I-123 DCIT]
- specific binding to LnCap cells (LnCap cells): bound specifically
- specific binding to PC3 cells (PC3 cells): not PC3 cells

Compound: [Re(CO)3{(19R,23S)-13,21-dioxo-2-([…]yridine-2-ylmethyl)-2,14,20,22-tetraazapentacosane-1,19,23,25-tetracarboxylic acid}] [MIP-1109]
- IC50 (PSMA on LNCaP cells; [2]): 696 nM

Compound: [Re(CO)3{(35R,39S)-29,37-dioxo-1-([…]yridine-2-yl)-2-([…]yridine-2-ylmethyl)-5,8,11,14,17,20,23,26-octaoxa-2,30,36,38-tetraazahentetracontane-35,39,41-tricarboxylic acid}][Br] [MIP-1132]
- IC50 (PSMA on LNCaP cells; [2]): 1750 nM

Compound: O=C(O)CC[C@H](NC(=O)NC(CCCCNCc1ccccc1)C(=O)O)C(=O)O (stereo in doubt) [MIP-1106, (S)-2-(3-((R)-5-(benzylamino)-1-carboxypentyl)ureido)pentanedioic acid]
- IC50 (PSMA on LNCaP cells; [2]): 2960 nM

Compound: NCCCC[C@H](NC(=O)N[C@@H](CCC(=O)O)C(=O)O)C(=O)O [MIP 1033, (S, S)-2-[3-(5-Amino-1-carboxy-pentyl)-ureido]-pentanedioic acid]
- IC50 (PSMA on LNCaP cells; [2]): 498 nM
- IC50 (PSMA on LNCaP cells; [4]): 497 nM
- competition with I-131 DCIT for binding to LnCap cells (PSMA on LNCaP cells; screen at 2 uM test compound): competed

Compound: O=C(O)CC[C@H](NC(=O)N[C@@H](CCN(Cc1ccccn1)Cc1ccccn1)C(=O)O)C(=O)O [MIP 1028, (S, S)-2-{3-[3-(Bis-pyridin-2-ylmethyl-amino)-1-carboxy-propyl]-ureido}-pentanedioic acid]
- competition with I-131 DCIT for binding to LnCap cells (PSMA on LNCaP cells; screen at 2 uM test compound): did not compete

Compound: O=C(O)CC[C@H](NC(=O)N[C@@H](CCCCNC(=O)CCCCCCCCCCN(Cc1ccc(I)cc1)Cc1ccc(I)cc1)C(=O)O)C(=O)O [MIP-1130, (19S,23S)-2-(4-iodobenzyl)-1-(4-iodophenyl)-13,21-dioxo-2,14,20,22-tetraazapentacosane-19,23,25-tricarboxylic acid]
- IC50 (PSMA on LNCaP cells; [2]): 300 nM

Compound: [Re(CO)3{(17R,21S)-11,19-dioxo-1-([…]yridine-2-yl)-2-([…]yridine-2-ylmethyl)-5,8-dioxa-2,12,18,20-tetraazatricosane-17,21,23-tricarboxylic acid}][Br] [MIP-1133]
- IC50 (PSMA on LNCaP cells; [2]): 227 nM

Compound: O=C(O)CC[C@H](NC(=O)N[C@@H](CCCCNCc1ccc([131I])cc1)C(=O)O)C(=O)O [I-131 1072]
- stability by radio-HPLC ([1]; 3 days at 37° C. in DMSO, gentisate/ascorbate, PBS pH 7.2, 10% ethanol in saline): remained stable
- labeling stability (degradation) ([1]; out to 3 days at room temperature in DMSO, 10% ethanol/saline, PBS pH 7.2, 6% ascorbate/3% gentisic acid): no significant degradation

Compound: O=C(O)CC[C@H](NC(=O)N[C@@H](Cc1ccc(O)c(I)c1)C(=O)O)C(=O)O [I-131 DCIT, N—[N—[(S)-1,3-dicarboxypropyl]carbamoyl]-S-3-iodo-L-tyrosine]
- specific binding to LnCap cells (LnCap cells): bound specifically
- labeling stability (degradation) ([1]; out to 2 days at room temperature): no significant degradation
- specific binding to PC3 cells (PC3 cells): not PC3 cells

Compound: O=C(O)CC[C@H](NC(=O)N[C@@H](CCCCNC(=O)NCc1cccc(I)c1)C(=O)O)C(=O)O [MIP-1101, 2-(3-{1-Carboxy-5-[3-(3-iodo-benzyl)-ureido]-pentyl}-ureido)-pentanedioic acid]
- IC50 (PSMA on LNCaP cells; [2]): 10 nM

Compound: O=C(O)CC[C@H](NC(=O)N[C@@H](CCCCNC(=O)Nc1ccccc1)C(=O)O)C(=O)O (stereo in doubt) [MIP 1111, 2-(3-{1-Carboxy-5-[3-(phenyl)-ureido]-pentyl}-ureido)-pentanedioic acid]
- IC50 (PSMA on LNCaP cells; [2]): 12 nM

Compound: O=C(O)CC[C@H](NC(=O)N[C@@H](CCCCNCc1cccc(Cl)c1)C(=O)O)C(=O)O [MIP 1131, (S, S)-2-{3-[1-Carboxy-5-(3-chloro-benzylamino)-pentyl]-ureido}-pentanedioic]
- IC50 (PSMA on LNCaP cells; [2]): 277 nM

Compound: [Re(CO)3(2-{3-[5-(Bis-pyridin-2-ylmethyl-amino)-1-carboxy-pentyl]-ureido}-pentanedioic acid)][Br] [MIP 1029]
- competition with I-131 DCIT for binding to LnCap cells (PSMA on LNCaP cells): did not compete

Compound: O=C(O)CC[C@H](NC(=O)N(Cc1ccccn1)Cc1ccccn1)C(=O)O [MIP 1025, (S)-2-(3,3-Bis-pyridin-2-ylmethyl-ureido)-pentanedioic acid]
- competition with I-131 DCIT for binding to LnCap cells (PSMA on LNCaP cells; screen at 2 uM test compound): did not compete

Compound: O=C(O)CC[C@H](NC(=O)N[C@@H](Cc1ccc(O)c(I)c1)C(=O)O)C(=O)O [DCIT, N—[N—[(S)-1,3-dicarboxypropyl]carbamoyl]-S-3-iodo-L-tyrosine]
- Bmax (PSMA (LnCap cells)): 254 fmol
- Kd (PSMA (LnCap cells)): 0.264 µM

Compound: O=C(O)CC[C@H](NC(=O)N[C@@H](CCCCNS(=O)(=O)c1ccc(I)cc1)C(=O)O)C(=O)O [MIP 1097, 2-{3-[1-carboxy-5-(4-iodo-benzenesulfonylamino)-pentyl]-ureido}-pentanedioic acid]
- IC50 (PSMA on LNCaP cells; [3]): < 50 nM

Compound: O=C(O)CC[C@H](NC(=O)N[C@@H](CCCCNCc1ccc(Cl)cc1)C(=O)O)C(=O)O [MIP 1135, (S, S)-2-{3-[1-Carboxy-5-(4-chloro-benzylamino)-pentyl]-ureido}-pentanedioic]
- IC50 (PSMA on LNCaP cells; [2]): 2 nM

Compound: O=C(O)CC[C@H](NC(=O)N[C@@H](CCCCN(Cc1ccccn1)Cc1ccccn1)C(=O)O)C(=O)O [MIP 1008, (S, S)-2-{3-[5-(Bis-pyridin-2-ylmethyl-amino)-1-carboxy-pentyl]-ureido}-pentanedioic acid]
- IC50 (PSMA on LNCaP cells; [4]): 98 nM
- competition with I-131 DCIT for binding to LnCap cells (PSMA on LNCaP cells; screen at 2 uM test compound): competed
